Assay results taken from patent US12624018B1, “Inhibitors of RIPK2 and medical uses thereof” (Odyssey Therapeutics, Inc., priority 2022, dated 2026).
pIC50: −log10 of the molar value.

What follows are compounds tested against T1, RIPK2 enzyme (Homo sapiens, UniProt O43353) (assay: RIPK2 inhibition (ADP-Glo Kinase Assay)). Settings: RIPK2 5 nM, ATP 150 μM, MBP substrate, read-out: RIPK2 IC50.
T1 construct: purchased Carna 09-128
Type: biochemical
Procedure: RIPK2 inhibition was measured as follows:
The V9102 ADP-Glo Kinase Assay (including ultrapure ATP, 10 mM) was purchased from Promega. Native swine MBP was used as the substrate for the reaction and was purchased from SignalChem Biotech (catalogue number M42-51N). Assay buffer used for the assay consisted of the following components: MgCl2 (final concentration of 10 mM), Brij-35 (0.01%), DTT (final concentration of 2 mM), BSA (0.05%), EGTA (final concentration of 1 mM), and HEPE (pH 7.5 at final concentration of 50 mM).
Method: In a 384 well plate, 10 nL of test compound was dispensed using Echo550 and mixed with RIPK2 enzyme (final concentration of 5 nM) in assay buffer for 30 minutes at room temperature. […] Then ADP-Glo reagent was added and incubated for 60 min at room temperature. Last, Kinase Detection Reagent was added to the mixture and incubated for 60 min. The resulting luminescent signal was measured with an Envision reader to determine the amount of ADP produced. All plates contained vehicle controls (10 nL DMSO only) as a reference for the high control (0% kinase inhibition), and wells with no RIPK2 enzyme as reference for low control (100% kinase inhibition). Data were analyzed to determine the percent inhibition of ADP production in the presence of test compound using both low and high controls.

T1 sequence (O43353 1-299 limits assumed): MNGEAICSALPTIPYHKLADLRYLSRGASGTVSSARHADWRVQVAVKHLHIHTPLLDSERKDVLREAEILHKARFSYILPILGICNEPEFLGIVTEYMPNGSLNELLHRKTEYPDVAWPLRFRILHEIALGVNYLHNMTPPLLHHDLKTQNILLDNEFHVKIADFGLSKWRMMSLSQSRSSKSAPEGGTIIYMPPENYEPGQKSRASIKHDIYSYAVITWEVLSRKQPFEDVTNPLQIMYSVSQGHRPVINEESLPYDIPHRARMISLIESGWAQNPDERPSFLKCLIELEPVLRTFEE

Row | pIC50 | Structure (SMILES)
1 | > 8.60 | Cc1cc(CC(=O)Nc2cnn(C(C)(C)C)c2)ccc1Oc1ccnc2ccc(OCC3CCCN3)cc12 (single isomer, unassigned) [Compound 191, N-(1-(tert-butyl)-1H-pyrazol-4-yl)-2-(3-methyl-4-((6-(pyrrolidin-2-ylmethoxy)quinolin-4-yl)oxy)phenyl) acetamide]
2 | > 8.60 | CC(C)(C)n1cc(NC(=O)Cc2ccc(Oc3ccnc4ccc(S(C)(=N)=O)cc34)c(Cl)c2)cn1 (single isomer, unassigned) [Compound 196, N-(1-(tert-butyl)-1H-pyrazol-4-yl)-2-(3-chloro-4-((6-(S-methylsulfonimidoyl)quinolin-4-yl)oxy)phenyl)acetamide]
3 | > 8.60 | Cc1cc(CC(=O)Nc2cnn(C(C)(C)C)c2)ccc1Oc1ccnc2ccc(S(=O)(=O)C3CCOC3)cc12 (single isomer, unassigned) [Compound 199, N-(1-(tert-butyl)-1H-pyrazol-4-yl)-2-(3-methyl-4-((6-((tetrahydrofuran-3-yl)sulfonyl)quinolin-4-yl)oxy)phenyl)acetamide]
4 | > 8.60 | Cc1cc(CC(=O)Nc2cnn(C(C)(C)C)c2)ccc1Oc1ccnc2ccc(S(=O)(=O)C3CCOC3)cc12 (single isomer, unassigned) [Compound 200, N-(1-(tert-butyl)-1H-pyrazol-4-yl)-2-(3-methyl-4-((6-((tetrahydrofuran-3-yl)sulfonyl)quinolin-4-yl)oxy)phenyl)acetamide]
5 | > 8.60 | Cc1cc(CC(=O)Nc2cnn(C(C)(C)C)c2)ccc1Oc1ccnc2ccc(S(=O)(=O)C3CCNC3)cc12 (single isomer, unassigned) [Compound 201, N-(1-(tert-butyl)-1H-pyrazol-4-yl)-2-(3-methyl-4-((6-(pyrrolidin-3-ylsulfonyl)quinolin-4-yl)oxy)phenyl)acetamide]
6 | > 8.60 | Cc1cc(CC(=O)Nc2cnn(C(C)(C)C)c2)ccc1Oc1ccnc2ccc(S(=O)(=O)C3CCNC3)cc12 (single isomer, unassigned) [Compound 202, N-(1-(tert-butyl)-1H-pyrazol-4-yl)-2-(3-methyl-4-((6-(pyrrolidin-3-ylsulfonyl)quinolin-4-yl)oxy)phenyl)acetamde]
7 | > 8.60 | Cc1cc(CC(=O)Nc2cnn(C(C)(C)C)c2)ccc1Oc1ccnc2ccc(S(=O)(=O)CC3CCOC3)cc12 (single isomer, unassigned) [Compound 241, N-(1-(tert-butyl)-1H-pyrazol-4-yl)-2-(3-methyl-4-((6-(((tetrahydrofuran-3-yl)methyl)sulfonyl)quinolin-4-yl)oxy)phenyl)acetamide]
8 | > 8.60 | Cc1cc(CC(=O)Nc2cnn(C(C)(C)C)c2)ccc1Oc1ccnc2ccc(S(=O)(=O)CC3CCOC3)cc12 (single isomer, unassigned) [Compound 242, N-(1-(tert-butyl)-1H-pyrazol-4-yl)-2-(3-methyl-4-((6-(((tetrahydrofuran-3-yl)methyl)sulfonyl)quinolin-4-yl)oxy)phenyl)acetamide]
9 | > 8.60 | Cc1c(Oc2ccnc3ccc(S(=O)(=O)C4CCOC4)cc23)ccc(CC(=O)Nc2cnn(C(C)(C)C)c2)c1F (single isomer, unassigned) [Compound 250, N-(1-(tert-butyl)-1H-pyrazol-4-yl)-2-(2-fluoro-3-methyl-4-((6-((tetrahydrofuran-3-yl)sulfonyl)quinolin-4-yl)oxy)phenyl)acetamide]
10 | > 8.60 | Cc1c(Oc2ccnc3ccc(S(=O)(=O)C4CCOC4)cc23)ccc(CC(=O)Nc2cnn(C(C)(C)C)c2)c1F (single isomer, unassigned) [Compound 251, N-(1-(tert-butyl)-1H-pyrazol-4-yl)-2-(2-fluoro-3-methyl-4-((6-((tetrahydrofuran-3-yl)sulfonyl)quinolin-4-yl)oxy)phenyl)acetamide]
11 | > 8.60 | Cc1cc(CC(=O)Nc2cnn(C(C)(C)C)c2)ccc1Oc1ccnc2ccc(S(=O)(=O)C3CC(N)C3)cc12 (single isomer, unassigned) [Compound 282, 2-(4-((6-((-3-aminocyclobutyl)sulfonyl)quinolin-4-yl)oxy)-3-methylphenyl)-N-(1-(tert-butyl)-1H-pyrazol-4-yl)acetamide]

Further lines, the compound ahead of its results:

Row | Structure (SMILES) | pIC50
12 | Cc1cc(CC(=O)Nc2cnn(C(C)(C)C)c2)ccc1Oc1ccnc2ccc(OC3CCNCC3C)cc12 (racemic) [Compound 187] | > 8.60
13 | Cc1cc(CC(=O)Nc2cnn(C(C)(C)C)c2)ccc1Oc1ccnc2ccc(OC3CCNCC3C)cc12 (racemic) [Compound 188, N-(1-(tert-butyl)-1H-pyrazol-4-yl)-2-(3-methyl-4-((6-((-3-methyl-piperidin-4-yl)oxy)quinolin-4-yl)oxy)phenyl) acetamide] | > 8.60
14 | Cc1cc(CC(=O)Nc2cnn(C(C)(C)C)c2)ccc1Oc1ccnc2ccc(OC3CCNCC3O)cc12 (racemic) [Compound 189, N-(1-(tert-butyl)-1H-pyrazol-4-yl)-2-(4-((6-((-3-hydroxy-piperidin-4-yl)oxy)quinolin-4-yl)oxy)-3-methylphenyl) acetamide] | > 8.60
15 | Cc1cc(CC(=O)Nc2cnn(C(C)(C)C)c2)ccc1Oc1ccnc2ccc(OC3CCNC(C)C3)cc12 (racemic) [Compound 220, N-(1-(tert-butyl)-1H-pyrazol-4-yl)-2-(3-methyl-4-((6-((-2-methyl-piperidin-4-yl)oxy)quinolin-4-yl)oxy)phenyl) acetamide] | > 8.60
16 | Cc1cc(CC(=O)Nc2cnn(C(C)(C)C)c2)ccc1Oc1ccnc2ccc(OC3CCNC(C)C3)cc12 (racemic) [Compound 221, N-(1-(tert-butyl)-1H-pyrazol-4-yl)-2-(3-methyl-4-((6-((-2-methyl-piperidin-4-yl)oxy)quinolin-4-yl)oxy)phenyl) acetamide] | > 8.60
17 | Cc1cc(CC(=O)Nc2cnn(C(C)(C)C)c2)ccc1Oc1ccnc2ccc(OC3CCNCC3F)cc12 (racemic) [Compound 237, N-(1-(tert-butyl)-1H-pyrazol-4-yl)-2-(4-((6-((-3-fluoro-piperidin-4-yl)oxy)quinolin-4-yl)oxy)-3-methylphenyl) acetamide] | > 8.60
18 | Cc1cc(CC(=O)Nc2cnn(C(C)(C)C)c2)ccc1Oc1ccnc2ccc(OC3CCNCC3F)cc12 (racemic) [Compound 238, N-(1-(tert-butyl)-1H-pyrazol-4-yl)-2-(4-((6-((-3-fluoro-piperidin-4-yl)oxy)quinolin-4-yl)oxy)-3-methylphenyl) acetamide] | > 8.60
19 | COc1ccc2ncnc(Oc3cnc(C(C)C(=O)Nc4cnn(C(C)(C)C)c4)c(F)c3)c2c1 (single isomer, unassigned) [Compound 11, N-(1-(tert-butyl)-1H-pyrazol-4-yl)-2-(3-fluoro-5-((6-methoxyquinazolin-4-yl)oxy)pyridin-2-yl)propanamide] | 7.15
20 | CC(C)(C)n1cc(NC(=O)Cc2ccc(Oc3ccnc4ccc(S(C)(=N)=O)cc34)cc2F)cn1 (single isomer, unassigned) [Compound 69, N-(1-(tert-butyl)-1H-pyrazol-4-yl)-2-(2-fluoro-4-((6-(S-methylsulfonimidoyl)quinolin-4-yl)oxy)phenyl)acetamide] | 8.16
21 | CC(C)(C)n1cc(NC(=O)Cc2ccc(Oc3ccnc4ccc(S(C)(=N)=O)cc34)cc2F)cn1 (single isomer, unassigned) [Compound 70, N-(1-(tert-butyl)-1H-pyrazol-4-yl)-2-(2-fluoro-4-((6-(S-methylsulfonimidoyl)quinolin-4-yl)oxy)phenyl)acetamide] | 8.29
22 | CN(C)C1CCN(c2ccc3nccc(Oc4cnc(CC(=O)Nc5cnn(C(C)(C)C)c5)c(F)c4)c3c2)C1 (single isomer, unassigned) [Compound 140, N-(1-(tert-butyl)-1H-pyrazol-4-yl)-2-(5-((6-(3-(dimethylamino)pyrrolidin-1-yl)quinolin-4-yl)oxy)-3-fluoropyridin-2-yl)acetamide] | 8.13
23 | CN(C)C1CCN(c2ccc3nccc(Oc4cnc(CC(=O)Nc5cnn(C(C)(C)C)c5)c(F)c4)c3c2)C1 (single isomer, unassigned) [Compound 141, N-(1-(tert-butyl)-1H-pyrazol-4-yl)-2-(5-((6-(3-(dimethylamino)pyrrolidin-1-yl)quinolin-4-yl)oxy)-3-fluoropyridin-2-yl)acetamide] | 7.99
24 | Cc1cc(CC(=O)Nc2cnn(C(C)(C)C)c2)ccc1Oc1ccnc2ccc(OCC3CCCN3)cc12 (single isomer, unassigned) [Compound 190, N-(1-(tert-butyl)-1H-pyrazol-4-yl)-2-(3-methyl-4-((6-(pyrrolidin-2-ylmethoxy)quinolin-4-yl)oxy)phenyl) acetamide] | > 8.60
25 | Cc1cc(CC(=O)Nc2cnn(C(C)(C)C)c2)ccc1Oc1ccnc2ccc(OCC(C)O)cc12 (single isomer, unassigned) [Compound 224, N-(1-(tert-butyl)-1H-pyrazol-4-yl)-2-(4-((6-(2-hydroxy-propoxy)quinolin-4-yl)oxy)-3-methylphenyl) acetamide] | > 8.60
26 | Cc1cc(CC(=O)Nc2cnn(C(C)(C)C)c2)ccc1Oc1ccnc2ccc(OCC(C)O)cc12 (single isomer, unassigned) [Compound 225, N-(1-(tert-butyl)-1H-pyrazol-4-yl)-2-(4-((6-(2-hydroxy-propoxy)quinolin-4-yl)oxy)-3-methylphenyl) acetamide] | > 8.60
